According to patent publication US20240051946A1, “TARGETED PROTEIN DEGRADATION OF PARP14 FOR USE IN THERAPY” (Ribon Therapeutics, Inc., priority 2022, published 2024):

Target: T1, catalytic domain of human PARP14 (residues 1611 to 1801) with NanoLuc tag (Homo sapiens, UniProt Q460N5)
T1 construct: expressed in transfected cells; host or cells: HEK-293T cells (ATCC), plasmid pRTX240 in pcDNA3.1(-)
T1 sequence (Q460N5 1611-1801): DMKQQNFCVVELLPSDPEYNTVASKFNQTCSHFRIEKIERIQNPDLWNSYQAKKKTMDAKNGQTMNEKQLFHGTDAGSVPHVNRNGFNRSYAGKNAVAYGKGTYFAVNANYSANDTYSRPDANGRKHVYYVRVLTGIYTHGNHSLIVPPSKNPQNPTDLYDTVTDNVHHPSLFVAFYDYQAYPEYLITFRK
Test: NanoLuc assay for the degradation of PARP14
Type: cell-based
Conditions: Assay A; NanoLuc-PARP14 overexpressed in HEK-293T cells; 2 hours at 37 degrees; luminescence
Experimental: The catalytic domain of human PARP14 (residues 1611 to 1801, GenBank Accession No. NM_017554) was inserted into the pcDNA3.1(−) vector. The insert also contained a NanoLuc tag on the N terminus of the PARP14 protein.
Degradation of PARP14 protein was assessed using measurement of the NanoLuc tag as proxy for the PARP14 protein. PARP14 with NanoLuc tag was overexpressed in […] cells (ATCC) using the plasmid described in Table 1. Plasmid DNA was diluted in empty vector DNA then added to 1.163 mL of phenol red free OptiMEM (Thermo Fisher). Plasmid DNA concentrations used in each assay described in Table 1. The plasmid DNA was mixed with 78.5 μL of Fugene HD (Promega) and allowed to incubate 5 minutes.
Next, 1.125 mL were added to 10 million 293T cells in DMEM (Thermo Fisher) supplemented with 10% FBS (VWR) and 1× Glutamax (Gibco). The transfection was incubated for 24 hrs at 37 degrees in an incubator supplemented with 5% CO2. The cells were then trypsinized and brought up in phenol red free OptiMEM media. Transfected HEK-293T cells were diluted to […] and then added to assay plate (Corning 3574) using a Multidrop (Thermo Fisher) to add 40 μL per well of the 384 well plate, resulting in 5,000 cells per well. 40 nL of a dose response curve diluted in DMSO of each test compound was added to the cell plate using a Mosquito (TTP Labtech) and the plate was incubated at 37 degrees for 2 hours. Assay plate was brought to room temperature then 20 μL per well of NanoGlo (Promega) was added to the plate. Luminescence was measured on an Envision (Perkin Elmer).
The average DMSO was calculated from 32 wells containing 0.1% DMSO only in columns 12 and 24 of the assay plate. The % of DMSO values were calculated as described below: […]
The % of DMSO values were plotted as a function of compound concentration and the following 4-parameter fit was applied to derive the DC50 values:
where top, bottom, and Hill Coefficient are allowed to float. Y is the % of DMSO and X is the compound concentration.
DC50 data for the Example compounds is provided below in Table 2 (“+” is <0.1 μM; “++” is ≥0.1 μM and <1 μM; and “+++” is ≥1 μM).

Row | Compound | DC50 [nM]
1 | O=C1CCC(N2C(=O)c3cccc(N4CCN(CC5CCN(C(=O)CN6CCC(SCc7nc8cc(NC9CCCC9)cc(F)c8c(=O)[nH]7)CC6)CC5)CC4)c3C2=O)C(=O)N1 (stereo not shown) [Example 1, 4-(4-((1-(2-(4-(((7-(cyclopentylamino)-5-fluoro-4-oxo-3,4-dihydroquinazolin-2-yl)methyl)thio)piperidin-1-yl)acetyl)piperidin-4-yl)methyl)piperazin-1-yl)-2-(2,6-dioxopiperidin-3-yl)isoindoline-1,3-dione] | < 100
2 | O=C1CCC(N2C(=O)c3cccc(N4CCN(CC5CCN(C(=O)CN6CCC(SCc7nc8cc(OCC9CCOCC9)cc(F)c8c(=O)[nH]7)CC6)CC5)CC4)c3C2=O)C(=O)N1 (stereo not shown) [Example 2, 2-(2,6-dioxopiperidin-3-yl)-4-(4-((1-(2-(4-(((5-fluoro-4-oxo-7-((tetrahydro-2H-pyran-4-yl)methoxy)-3,4-dihydroquinazolin-2-yl)methyl)thio)piperidin-1-yl)acetyl)piperidin-4-yl)methyl)piperazin-1-yl)isoindoline-1,3-dione] | < 100
3 | O=C(CN1CCC(SCc2nc3cc(OCC4CCOCC4)cc(F)c3c(=O)[nH]2)CC1)NCCCCCCNC(=O)c1cccc(N2CCC(=O)NC2=O)c1 [Example 3, 3-(2,4-dioxotetrahydropyrimidin-1(2H)-yl)-N-(6-(2-(4-(((5-fluoro-4-oxo-7-((tetrahydro-2H-pyran-4-yl)methoxy)-3,4-dihydroquinazolin-2-yl)methyl)thio)piperidin-1-yl)acetamido)hexyl)benzamide] | < 100
4 | O=C(CN1CCC(SCc2nc3cc(OCC4CCOCC4)cc(F)c3c(=O)[nH]2)CC1)NCCCCNC(=O)c1cccc(N2CCC(=O)NC2=O)c1 [Example 4, 3-(2,4-dioxotetrahydropyrimidin-1(2H)-yl)-N-(4-(2-(4-(((5-fluoro-4-oxo-7-((tetrahydro-2H-pyran-4-yl)methoxy)-3,4-dihydroquinazolin-2-yl)methyl)thio)piperidin-1-yl)acetamido)butyl)benzamide] | 100 to 1000
5 | O=C(CN1CCC(SCc2nc3cc(OCC4CCOCC4)cc(F)c3c(=O)[nH]2)CC1)NCCCCCCN1CCC(c2ccc(NC3CCC(=O)NC3=O)cc2)CC1 (stereo not shown) [Example 5, N-(6-(4-(4-((2,6-dioxopiperidin-3-yl)amino)phenyl)piperidin-1-yl)hexyl)-2-(4-(((5-fluoro-4-oxo-7-((tetrahydro-2H-pyran-4-yl)methoxy)-3,4-dihydroquinazolin-2-yl)methyl)thio)piperidin-1-yl)acetamide] | < 100
6 | O=C(CN1CCC(SCc2nc3cc(OCC4CCOCC4)cc(F)c3c(=O)[nH]2)CC1)NCCCCCC(=O)N1CCC(c2ccc(NC3CCC(=O)NC3=O)cc2)CC1 (stereo not shown) [Example 6, N-(6-(4-(4-((2,6-dioxopiperidin-3-yl)amino)phenyl)piperidin-1-yl)-6-oxohexyl)-2-(4-(((5-fluoro-4-oxo-7-((tetrahydro-2H-pyran-4-yl)methoxy)-3,4-dihydroquinazolin-2-yl)methyl)thio)piperidin-1-yl)acetamide] | < 100
7 | O=C(CN1CCC(SCc2nc3cc(OCC4CCOCC4)cc(F)c3c(=O)[nH]2)CC1)NCCCCN1CCC(c2ccc(NC3CCC(=O)NC3=O)cc2)CC1 (stereo not shown) [Example 7, N-(4-(4-(4-((2,6-dioxopiperidin-3-yl)amino)phenyl)piperidin-1-yl)butyl)-2-(4-(((5-fluoro-4-oxo-7-((tetrahydro-2H-pyran-4-yl)methoxy)-3,4-dihydroquinazolin-2-yl)methyl)thio)piperidin-1-yl)acetamide] | < 100
8 | O=C(CN1CCC(SCc2nc3cc(OCC4CCOCC4)cc(F)c3c(=O)[nH]2)CC1)NCCCC(=O)N1CCC(c2ccc(NC3CCC(=O)NC3=O)cc2)CC1 (stereo not shown) [Example 8, N-(4-(4-(4-((2,6-dioxopiperidin-3-yl)amino)phenyl)piperidin-1-yl)-4-oxobutyl)-2-(4-(((5-fluoro-4-oxo-7-((tetrahydro-2H-pyran-4-yl)methoxy)-3,4-dihydroquinazolin-2-yl)methyl)thio)piperidin-1-yl)acetamide] | < 100
9 | O=C(CN1CCC(SCc2nc3cc(OCC4CCOCC4)cc(F)c3c(=O)[nH]2)CC1)NCCN1CCC(c2ccc(NC3CCC(=O)NC3=O)cc2)CC1 (stereo not shown) [Example 9, N-(2-(4-(4-((2,6-dioxopiperidin-3-yl)amino)phenyl)piperidin-1-yl)ethyl)-2-(4-(((5-fluoro-4-oxo-7-((tetrahydro-2H-pyran-4-yl)methoxy)-3,4-dihydroquinazolin-2-yl)methyl)thio)piperidin-1-yl)acetamide] | < 100
10 | O=C(CN1CCC(SCc2nc3cc(OCC4CCOCC4)cc(F)c3c(=O)[nH]2)CC1)NCC(=O)N1CCC(c2ccc(NC3CCC(=O)NC3=O)cc2)CC1 (stereo not shown) [Example 10, N-(2-(4-(4-((2,6-dioxopiperidin-3-yl)amino)phenyl)piperidin-1-yl)-2-oxoethyl)-2-(4-(((5-fluoro-4-oxo-7-((tetrahydro-2H-pyran-4-yl)methoxy)-3,4-dihydroquinazolin-2-yl)methyl)thio)piperidin-1-yl)acetamide] | < 100
11 | O=C(CN1CCC(SCc2nc3cc(OCC4CCOCC4)cc(F)c3c(=O)[nH]2)CC1)NCC(=O)N1CCC(c2cccc(NC3CCC(=O)NC3=O)c2)CC1 (stereo not shown) [Example 11, N-(2-(4-(3-((2,6-dioxopiperidin-3-yl)amino)phenyl)piperidin-1-yl)-2-oxoethyl)-2-(4-(((5-fluoro-4-oxo-7-((tetrahydro-2H-pyran-4-yl)methoxy)-3,4-dihydroquinazolin-2-yl)methyl)thio)piperidin-1-yl)acetamide] | < 100
12 | O=C(CN1CCC(SCc2nc3cc(OCC4CCOCC4)cc(F)c3c(=O)[nH]2)CC1)NCCCCCC(=O)N1CCC(c2cccc(NC3CCC(=O)NC3=O)c2)CC1 (stereo not shown) [Example 12, N-(6-(4-(3-((2,6-dioxopiperidin-3-yl)amino)phenyl)piperidin-1-yl)-6-oxohexyl)-2-(4-(((5-fluoro-4-oxo-7-((tetrahydro-2H-pyran-4-yl)methoxy)-3,4-dihydroquinazolin-2-yl)methyl)thio)piperidin-1-yl)acetamide] | < 100
13 | O=C(CN1CCC(SCc2nc3cc(OCC4CCOCC4)cc(F)c3c(=O)[nH]2)CC1)NCCCCN1CCC(c2cccc(NC3CCC(=O)NC3=O)c2)CC1 (stereo not shown) [Example 13, N-(4-(4-(3-((2,6-dioxopiperidin-3-yl)amino)phenyl)piperidin-1-yl)butyl)-2-(4-(((5-fluoro-4-oxo-7-((tetrahydro-2H-pyran-4-yl)methoxy)-3,4-dihydroquinazolin-2-yl)methyl)thio)piperidin-1-yl)acetamide] | < 100
14 | O=C(CN1CCC(SCc2nc3cc(OCC4CCOCC4)cc(F)c3c(=O)[nH]2)CC1)NCCCC(=O)N1CCC(c2cccc(NC3CCC(=O)NC3=O)c2)CC1 (stereo not shown) [Example 14, N-(4-(4-(3-((2,6-dioxopiperidin-3-yl)amino)phenyl)piperidin-1-yl)-4-oxobutyl)-2-(4-(((5-fluoro-4-oxo-7-((tetrahydro-2H-pyran-4-yl)methoxy)-3,4-dihydroquinazolin-2-yl)methyl)thio)piperidin-1-yl)acetamide] | < 100
15 | O=C(CN1CCC(SCc2nc3cc(OCC4CCOCC4)cc(F)c3c(=O)[nH]2)CC1)NCCN1CCC(c2cccc(NC3CCC(=O)NC3=O)c2)CC1 (stereo not shown) [Example 15, N-(2-(4-(3-((2,6-dioxopiperidin-3-yl)amino)phenyl)piperidin-1-yl)ethyl)-2-(4-(((5-fluoro-4-oxo-7-((tetrahydro-2H-pyran-4-yl)methoxy)-3,4-dihydroquinazolin-2-yl)methyl)thio)piperidin-1-yl)acetamide] | < 100
16 | O=C(CN1CCC(SCc2nc3cc(OCC4CCOCC4)cc(F)c3c(=O)[nH]2)CC1)NCCCCCCN1CCC(c2cccc(NC3CCC(=O)NC3=O)c2)CC1 (stereo not shown) [Example 16, N-(6-(4-(3-((2,6-dioxopiperidin-3-yl)amino)phenyl)piperidin-1-yl)hexyl)-2-(4-(((5-fluoro-4-oxo-7-((tetrahydro-2H-pyran-4-yl)methoxy)-3,4-dihydroquinazolin-2-yl)methyl)thio)piperidin-1-yl)acetamide] | < 100
